Test results: patent US7205295B2, “Benzoxazin-3-ones and derivatives thereof as therapeutic agents” (Warner-Lambert Company LLC, priority 2002, dated 2007)

These compounds were tested against T1, PI3Kγ (p101/p110γ protein) (Homo sapiens, UniProt P48736) (assay: PI3Kγ In Vitro Kinase Assay). Conditions: purified recombinant p101/p110γ with G protein β1/γ2 subunits; 20 μM ATP, 25 μM PIP2; 20 minutes at room temperature.
T1 construct: HA; made in house; host or cells: Spodoptera frugiperda (Sf9) cells, baculovirus co-infection
T1 sequence (P48736 whole entry, species assumed): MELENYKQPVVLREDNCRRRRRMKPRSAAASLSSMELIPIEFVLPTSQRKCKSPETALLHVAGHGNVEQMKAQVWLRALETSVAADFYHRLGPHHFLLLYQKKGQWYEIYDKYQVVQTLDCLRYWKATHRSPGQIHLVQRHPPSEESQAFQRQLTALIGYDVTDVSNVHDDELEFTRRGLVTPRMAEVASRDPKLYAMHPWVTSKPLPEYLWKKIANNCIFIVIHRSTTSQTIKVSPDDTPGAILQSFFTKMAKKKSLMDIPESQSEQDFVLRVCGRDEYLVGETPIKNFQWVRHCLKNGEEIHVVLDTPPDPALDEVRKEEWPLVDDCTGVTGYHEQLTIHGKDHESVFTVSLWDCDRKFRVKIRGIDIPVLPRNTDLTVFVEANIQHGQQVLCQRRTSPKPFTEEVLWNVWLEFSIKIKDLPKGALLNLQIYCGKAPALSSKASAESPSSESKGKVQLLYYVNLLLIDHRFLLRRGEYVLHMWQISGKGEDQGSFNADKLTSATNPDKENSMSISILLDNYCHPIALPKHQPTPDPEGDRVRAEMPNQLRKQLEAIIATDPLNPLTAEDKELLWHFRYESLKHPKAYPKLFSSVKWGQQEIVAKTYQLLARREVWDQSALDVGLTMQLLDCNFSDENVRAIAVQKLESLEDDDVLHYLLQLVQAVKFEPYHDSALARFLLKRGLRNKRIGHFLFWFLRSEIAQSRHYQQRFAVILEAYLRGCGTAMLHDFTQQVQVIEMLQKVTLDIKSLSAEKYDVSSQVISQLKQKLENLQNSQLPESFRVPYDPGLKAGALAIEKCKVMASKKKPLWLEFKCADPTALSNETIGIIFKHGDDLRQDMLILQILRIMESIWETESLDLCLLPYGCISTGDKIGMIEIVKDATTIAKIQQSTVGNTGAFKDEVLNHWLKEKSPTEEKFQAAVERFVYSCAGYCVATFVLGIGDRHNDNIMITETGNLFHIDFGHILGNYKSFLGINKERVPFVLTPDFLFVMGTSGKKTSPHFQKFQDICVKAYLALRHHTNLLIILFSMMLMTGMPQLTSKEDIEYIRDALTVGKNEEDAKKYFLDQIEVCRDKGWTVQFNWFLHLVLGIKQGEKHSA
T1 sequence (Q8WYR1 whole entry partner, species assumed): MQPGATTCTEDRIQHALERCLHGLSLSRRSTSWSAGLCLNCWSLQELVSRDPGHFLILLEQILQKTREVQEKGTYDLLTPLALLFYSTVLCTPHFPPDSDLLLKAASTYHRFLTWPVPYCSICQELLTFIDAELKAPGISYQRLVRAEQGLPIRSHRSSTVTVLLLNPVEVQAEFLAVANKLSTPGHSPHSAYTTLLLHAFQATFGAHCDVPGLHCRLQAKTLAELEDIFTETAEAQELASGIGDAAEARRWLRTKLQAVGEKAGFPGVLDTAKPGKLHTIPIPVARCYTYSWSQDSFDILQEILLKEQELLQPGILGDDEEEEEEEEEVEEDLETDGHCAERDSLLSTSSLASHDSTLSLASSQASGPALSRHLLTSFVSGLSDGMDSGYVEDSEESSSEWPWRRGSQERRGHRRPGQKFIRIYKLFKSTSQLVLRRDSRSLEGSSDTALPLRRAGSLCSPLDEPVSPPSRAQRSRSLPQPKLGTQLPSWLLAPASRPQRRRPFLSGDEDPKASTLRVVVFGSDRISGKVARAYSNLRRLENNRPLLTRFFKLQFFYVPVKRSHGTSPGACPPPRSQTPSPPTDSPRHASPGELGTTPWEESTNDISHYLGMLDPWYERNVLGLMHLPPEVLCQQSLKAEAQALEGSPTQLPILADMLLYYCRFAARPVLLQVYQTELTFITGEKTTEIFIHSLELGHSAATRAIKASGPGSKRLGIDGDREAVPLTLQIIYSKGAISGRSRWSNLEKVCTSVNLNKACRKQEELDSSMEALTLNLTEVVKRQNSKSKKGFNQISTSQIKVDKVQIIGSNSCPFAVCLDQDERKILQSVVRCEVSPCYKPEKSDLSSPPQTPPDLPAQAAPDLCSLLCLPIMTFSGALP
Type: biochemical
Method in brief: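 Sf9-expressed, purified human p101/p110γ (2.7 nM) was activated by Gβ1/γ2 (57.7 nM) and reacted with 20 μM ATP plus [γ-32P]ATP on PIP2 (25 μM)/PE (300 μM) micelles with 10 mM MgCl2 in HEPES buffer. Reactions ran 20 min at room temperature. Filter-captured radiolabeled PIP3 was counted by scintillation.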

Row | Structure (SMILES) | IC50 [nM]
1 | O=C1NC(=S)SC1=Cc1ccc2c(c1)N(Cc1ccc(F)cc1)C(=O)CO2 [Example 303, 4-(4-Fluoro-benzyl)-6-(4-oxo-2-thioxo-thiazolidin-5-ylidenemethyl)-4H-benzo[1,4]oxazin-3-one] | 2
2 | CC(C)(O)c1cc(CN2C(=O)COc3ccc(C=C4SC(=S)NC4=O)cc32)ccc1F [Example 304, 4-[4-Fluoro-3-(1-hydroxy-1-methyl-ethyl)-benzyl]-6-(4-oxo-2-thioxo-thiazolidin-5-ylidenemethyl)-4H-benzo[1,4]oxazin-3-one; Compound with Ethane-1,2-diamine] | 8
3 | CC(C)(O)c1cc(CN2C(=O)COc3ccc(C=C4SC(=O)NC4=O)cc32)ccc1F [Example 305, 5-{4-[4-Fluoro-3-(1-hydroxy-1-methyl-ethyl)-benzyl]-3-oxo-3,4-dihydro-2H-benzo[1,4]oxazin-6-ylmethylene}-thiazolidine-2,4-dione] | 16
4 | Cc1cc(CN2C(=O)COc3ccc(C=C4SC(=S)NC4=O)cc32)ccc1F [Example 306, 4-(4-Fluoro-3-methyl-benzyl)-6-(4-oxo-2-thioxo-thiazolidin-5-ylidenemethyl)-4H-benzo[1,4]oxazin-3-one] | 1
5 | O=C1NC(=O)C(=Cc2ccc3c(c2)N(Cc2cccc(Oc4ccccc4F)c2)C(=O)CO3)S1 [Example 307] | 5
6 | O=C1NC(=O)C(=Cc2ccc3c(c2)N(Cc2ccc(F)c(Cl)c2)C(=O)CO3)S1 [Example 308, 5-[4-(3-Chloro-4-fluoro-benzyl)-3-oxo-3,4-dihydro-2H-benzo[1,4]oxazin-6-ylmethylene]-thiazolidine-2,4-dione] | 1
7 | O=C1NC(=S)SC1=Cc1cc(F)c2c(c1)N(CCOc1ccc(F)cc1)C(=O)CO2 [Example 310, 8-Fluoro-4-[2-(4-fluoro-phenoxy)-ethyl]-6-(4-oxo-2-thioxo-thiazolidin-5-ylidenemethyl)-4H-benzo[1,4]oxazin-3-one] | 9
8 | O=C1NC(=S)SC1=Cc1ccc2c(c1)N(Cc1ccc(F)c(F)c1)C(=O)CO2 [Example 312, 4-(3,4-Difluoro-benzyl)-6-(4-oxo-2-thioxo-thiazolidin-5-ylidenemethyl)-4H-1,4-benzoxazin-3-one] | 3
9 | COCCN(CCCN1C(=O)COc2c(F)cc(C=C3SC(=S)NC3=O)cc21)CCOC [Example 313] | 35
10 | O=C1NC(=S)SC1=Cc1ccc2c(c1)N(Cc1ccc3nccnc3c1)C(=O)CO2 [Example 314, 6-(4-Oxo-2-thioxo-thiazolidin-5-ylidenemethyl)-4-quinoxalin-6-ylmethyl-4H-benzo[1,4]oxazin-3-one] | 36
11 | O=C1NC(=S)SC1=Cc1cc(F)c2c(c1)N(Cc1ccc3nccnc3c1)C(=O)CO2 [Example 315, 8-Fluoro-6-(4-Oxo-2-thioxo-thiazolidin-5-ylidenemethyl)-4-quinoxalin-6-ylmethyl-4H-benzo[1,4]oxazin-3-one; Compound with Ethane-1,2-diamine] | 44
12 | O=C1COc2ccc(C=C3SC(=S)N(c4ccccc4)C3=O)cc2N1Cc1ccc(Cl)s1 [Example 316, 4-(5-Chloro-thiophen-2-ylmethyl)6-(4-oxo-3-phenyl-2-thioxo-thiazolidin-5-ylidenemethyl)-4H-benzo[1,4]oxazin-3-one] | 3700
13 | Cc1cc(CN2C(=O)COc3ccc(C=C4SC(=S)NC4=O)cc32)c(C)o1 [Example 317, 4-(2,5-Dimethyl-furan-3-ylmethyl)-6-(4-oxo-2-thioxo-thiazolidin-5-ylidenemethyl)-4H-benzo[1,4]oxazin-3-one] | 21
14 | Cc1cc(CN2C(=O)COc3c(F)cc(C=C4SC(=S)NC4=O)cc32)c(C)o1 [Example 318, 4-(2,5-Dimethyl-furan-3-ylmethyl)-8-fluoro-6-(4-oxo-2-thioxo-thiazolidin-5-ylidenemethyl)-4H-benzo[1,4]oxazin-3-one] | 25
15 | O=C1NC(=S)SC1=Cc1cc(F)c2c(c1)N(Cc1ccc(Cl)s1)C(=O)CO2 [Example 319, 4-(5-Chloro-thiophen-2-ylmethyl)-8-fluoro-6-(4-oxo-2-thioxo-thiazolidin-5-ylidenemethyl)-4H-benzo[1,4]oxazin-3-one] | 5
16 | Cc1cc(CN2C(=O)COc3ccc(C=C4SC(=S)N(CC(=O)O)C4=O)cc32)c(C(F)(F)F)o1 [Example 321, {5-[4-(5-Methyl-2-triflouromethyl-furan-3-ylmethyl)-3-oxo-3,4-dihydro-2H-benzo[1,4]oxazin-6-ylmethylene]-4-oxo-2-thioxo-thiazolidin-3-yl}-acetic acid; Compound with ethane-1,2-diamine] | 9730
17 | O=C1NC(=S)SC1=Cc1ccc2c(c1)N(Cc1ccc(Cl)s1)C(=O)CO2 [Example 322, 4-(5-Chloro-thiophen-2-ylmethyl)-6-(4-oxo-2-thioxo-thiazolidin-5-ylidenemethyl)-4H-benzo[1,4]oxazin-3-one] | 3
18 | O=C1NC(=S)SC1=Cc1ccc2c(c1)N(Cc1cnc3ccccc3c1)C(=O)CO2 [Example 323, 6-(4-Oxo-2-thioxo-thiazolidin-5-ylidenemethyl)-4-quinolin-3-ylmethyl-4H-benzo[1,4]oxazin-3-one] | 29

Continued, values first:

Row | IC50 [nM] | Structure (SMILES)
19 | 33 | Cc1cc(CN2C(=O)COc3ccc(C=C4SC(=S)NC4=O)cc32)c(C(F)(F)F)o1 [Example 324, 4-(5-Methyl-2-triflouromethyl-furan-3-ylmethyl)-6-(4-oxo-2-thioxo-thiazolidin-5-ylidenemethyl)-4H-benzo[1,4]oxazin-3-one]
20 | 18 | Cc1cc(CN2C(=O)COc3c(F)cc(C=C4SC(=S)NC4=O)cc32)nn1C(C)(C)C [Example 325, 4-(1-tert-Butyl-5-methyl-1H-pyrazol-3-ylmethyl)-8-flouro-6-(4-oxo-2-thioxo-thiazolidin-5-ylidenemethyl)-4H-benzo[1,4]oxazin-3-one]
21 | 25 | Cc1cc(CN2C(=O)COc3ccc(C=C4SC(=S)NC4=O)cc32)nn1C(C)(C)C [Example 326, 4-(1-tert-Butyl-5-methyl-1H-pyrazol-3-ylmethyl)-6-(4-oxo-2-hioxo-thiazolidin-5-ylidenemethyl)-4H-benzo[1,4]oxazin-3-one]
22 | 245 | CC(C)(C)c1cc(CN2C(=O)COc3ccc(C=C4SC(=S)NC4=O)cc32)n(Cc2ccccc2)n1 [Example 327, 4-(2-Benzyl-5-tert-butyl-2H-pyrazol-3-ylmethyl)-6-(4-oxo-2-thioxo-thiazolidin-5-ylidenemethyl)-4H-benzo[1,4]oxazin-3-one]
23 | 6 | O=C1NC(=S)SC1=Cc1cc(F)c2c(c1)N(Cc1ccc3ncccc3c1)C(=O)CO2 [Example 328, 8-Fluoro-6-(4-oxo-2-thioxo-thiazolidin-5-ylidenemethyl)-4-quinolin-6-ylmethyl-4H-1,4-benzoxazin-3-one]
24 | 28 | Cc1cc(CN2C(=O)COc3ccc(C=C4SC(=S)NC4=O)cc32)nn1C [Example 329, 4-(1,5-Dimethyl-1H-pyrazol-3-ylmethyl)-6-(4-oxo-2-thioxo-thiazolidin-5-ylidenemethyl)-4H-1,4-benzoxazin-3-one]
25 | 47 | O=C1NC(=S)SC1=Cc1cc(F)c2c(c1)N(Cc1cncc(Cl)c1)C(=O)CO2 [Example 330, 4-(5-Chloro-pyridin-3-ylmethyl)-8-fluoro-6-(4-oxo-2-thioxo-thiazolidin-5-ylidenemethyl)-4H-1,4-benzoxazin-3-one]
26 | 9 | CC(C)(O)c1cc(CN2C(=O)COc3c(F)cc(C=C4SC(=S)NC4=O)cc32)ccc1Cl [Example 331, 4-[4-Chloro-3-(1-hydroxy-1-methyl-ethyl)-benzyl]-8-fluoro-6-(4-oxo-2-thioxo-thiazolidin-5-ylidenemethyl)-4H-1,4-benzoxazin-3-one; Compound with Ethane-1,2-diamine]
27 | 7 | CC(C)(O)c1cc(CN2C(=O)COc3ccc(C=C4SC(=S)NC4=O)cc32)ccc1Cl [Example 332, 4-[4-Chloro-3-(1-hydroxy-1-methyl-ethyl)-benzyl]-6-(4-oxo-2-thioxo-thiazolidin-5-ylidenemethyl)-4H-1,4-benzoxazin-3-one; compound with ethane-1,2-diamine]
28 | 7 | O=C1NC(=S)SC1=Cc1ccc2c(c1)N(Cc1cccs1)C(=O)CO2 [Example 333, 6-(4-Oxo-2-thioxo-thiazolidin-5-ylidenemethyl)-4-thiophen-2-ylmethyl-4H-1,4-benzoxazin-3-one]
29 | 25 | Cc1cncc(CN2C(=O)COc3ccc(C=C4SC(=S)NC4=O)cc32)c1 [Example 334, 4-(5-Methyl-pyridin-3-ylmethyl)-6-(4-oxo-2-thioxo-thiazolidin-5-ylidenemethyl)-4H-1,4-benzoxazin-3-one]
30 | 34 | CC(C)n1cnc2cc(CN3C(=O)COc4ccc(C=C5SC(=S)NC5=O)cc43)ccc21 [Example 335, 4-(1-Isopropyl-1H-benzimidazol-5-ylmethyl)-6-(4-oxo-2-thioxo-thiazolidin-5-ylidenemethyl)-4H-1,4-benzoxazin-3-one]
31 | 9 | CC(C)n1cnc2ccc(CN3C(=O)COc4ccc(C=C5SC(=S)NC5=O)cc43)cc21 [Example 336, 4-(3-Isopropyl-3H-benzimidazol-5-ylmethyl)-6-(4-oxo-2-thioxo-thiazolidin-5-ylidenemethyl)-4H-1,4-benzoxazin-3-one]
32 | 8 | O=C1NC(=S)SC1=Cc1ccc2c(c1)N(Cc1ccc3ncccc3c1)C(=O)CO2 [Example 337, 6-(4-Oxo-2-thioxo-thiazolidin-5-ylidenemethyl)-4-quinolin-6-ylmethyl-4H-1,4-benzoxazin-3-one]
33 | 12 | O=C1NC(=O)C(=Cc2ccc3c(c2)N(Cc2ccoc2)C(=O)CO3)S1 [Example 338, 5-(4-Furan-3-ylmethyl-3-oxo-3,4-dihydro-2H-1,4-benzoxazin-6-ylmethylene)-thiazolidine-2,4-dione]
